Reference: patent publication US7169789B2 (Kirin Beer Kabushiki Kaisha, priority 1999, dated 2007)

Legend:
Human glioma cells GL07 = test: Antitumor effect on human glioma cells (GL07) transplanted into nude mice; type: in vivo; conditions: Mus musculus, Glioma cell, 216 h, GL07, oral, 20 mg/kg once a day for 9 days, read-out: TGIR, % (tumor growth inhibition rate)
Method: Antitumor Effect on Human Glioma Cells (GL07)
Human glioma cells GL07 (obtained from Central Laboratories for Experimental Animals) were transplanted into nude mice. When the tumor volume became about 100 mm^3, the mice were grouped. In this case, grouping was carried out so that each group consisted of four mice and the average tumor volume was even among the groups. The test compound was orally or intraperitoneally administered at a dose of 20 mg/kg to the test groups every day once a day for 9 days, while the medium was administered to the control group in the manner as in the test groups. The tumor growth inhibition rate (TGIR) was calculated as follows: The tumor growth inhibition rate (TGIR)=(1−Tx/Cx)×100 wherein Cx represents the volume of tumor at day x for the control group when the tumor volume at the day of the start of the administration was presumed to be 1; and Tx represents the volume of tumor for test compound administration groups.

human KDR = target: T1, human KDR (Homo sapiens, UniProt P35968); test: Inhibitory activity against KDR phosphorylation by ELISA; type: cell-based; conditions: NIH 3T3 cells transfected with human KDR, VEGF 100 ng/ml
T1 construct: expressed in transfected cells; host or cells: NIH 3T3 cells (Sawano A et al., Cell Growth & Differentiation 7, 213-221 (1996))
T1 sequence (P35968 20-1356): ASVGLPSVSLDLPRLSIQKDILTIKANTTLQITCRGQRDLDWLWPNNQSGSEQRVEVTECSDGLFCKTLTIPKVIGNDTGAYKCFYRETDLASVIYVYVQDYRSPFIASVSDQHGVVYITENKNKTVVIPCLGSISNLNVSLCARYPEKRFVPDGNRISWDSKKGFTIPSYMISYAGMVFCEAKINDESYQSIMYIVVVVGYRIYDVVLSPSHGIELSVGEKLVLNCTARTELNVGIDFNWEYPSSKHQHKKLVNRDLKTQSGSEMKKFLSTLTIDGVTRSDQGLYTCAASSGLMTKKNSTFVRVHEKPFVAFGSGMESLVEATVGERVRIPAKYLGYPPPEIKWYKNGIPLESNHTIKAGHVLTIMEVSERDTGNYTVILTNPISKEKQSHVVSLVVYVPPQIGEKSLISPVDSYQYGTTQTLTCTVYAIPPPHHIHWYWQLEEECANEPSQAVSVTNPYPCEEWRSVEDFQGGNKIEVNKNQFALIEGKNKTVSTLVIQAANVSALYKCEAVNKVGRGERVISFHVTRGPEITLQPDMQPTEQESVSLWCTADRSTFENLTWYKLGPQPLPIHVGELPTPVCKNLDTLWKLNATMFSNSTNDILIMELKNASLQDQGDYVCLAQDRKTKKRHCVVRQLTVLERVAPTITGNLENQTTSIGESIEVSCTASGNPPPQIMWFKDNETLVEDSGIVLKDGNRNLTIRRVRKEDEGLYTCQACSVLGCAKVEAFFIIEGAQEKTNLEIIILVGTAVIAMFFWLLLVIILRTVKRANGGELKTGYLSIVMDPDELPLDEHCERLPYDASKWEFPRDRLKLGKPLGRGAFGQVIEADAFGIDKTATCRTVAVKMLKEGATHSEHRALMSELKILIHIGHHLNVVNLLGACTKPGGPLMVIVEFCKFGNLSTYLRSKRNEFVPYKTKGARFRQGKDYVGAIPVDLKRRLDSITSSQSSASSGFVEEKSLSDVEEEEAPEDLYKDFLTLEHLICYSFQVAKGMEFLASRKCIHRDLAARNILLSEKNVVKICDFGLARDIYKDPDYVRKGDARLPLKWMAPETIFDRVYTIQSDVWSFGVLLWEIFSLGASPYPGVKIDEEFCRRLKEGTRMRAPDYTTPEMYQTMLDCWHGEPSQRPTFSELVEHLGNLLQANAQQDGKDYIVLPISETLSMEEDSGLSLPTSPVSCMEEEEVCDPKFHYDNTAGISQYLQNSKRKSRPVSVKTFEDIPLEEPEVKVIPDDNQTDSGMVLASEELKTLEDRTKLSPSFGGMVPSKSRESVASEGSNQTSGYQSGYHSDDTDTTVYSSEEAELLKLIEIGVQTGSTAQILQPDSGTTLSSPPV
Method: Measurement of Inhibitory Activity Against KDR Phosphorylation by ELISA
NIH 3T3 cells (Sawano A et al., Cell Growth & Differentation, 7, 213–221 (1996), “Flt-1 but not KDR/Flk-1 tyrosine kinase is a receptor for placenta growth factor, which is related to vascular endothelial growth factor”) prepared by transfection of human KDR were cultured in a DMEM medium containing 10% fetal calf serum (purchased from GIBCO BRL) within a 5% carbon dioxide incubator until 50 to 70% confluent. The harvested cells were inoculated into wells, containing the same medium, in a collagen-type one-coat 96-well flat-bottom plate in an amount of 1.5×10^4 per well, followed by cultivation at 37° C. overnight. The medium was then replaced by a DMEM medium containing 0.1% fetal calf serum. A solution of the test compound in dimethyl sulfoxide was added to each well, and the cultivation was continued at 37° C. for additional one hr. A human recombinant vascular endothelial growth factor (hereinafter abbreviated to “VEGF”) was added to a final concentration of 100 ng/ml, and the stimulation of cells was carried out at 37° C. for 2 min. The medium was removed, the cells were washed with phosphate buffered saline (pH 7.4), and 50 μl of a solubilization buffer (20 mM HEPES (pH 7.4), 150 mM NaCl, 0.2% Triton X-100, 10% glycerol, 5 mM sodium orthovanadylate, 5 mM disodium ethylenediaminetetraacetate, and 2 mM Na4P2O7) was then added thereto. The mixture was shaken at 4° C. for 2 hr to prepare a cell extract.
Separately, phosphate buffered saline (50 μl, pH 7.4) containing […] of anti-phospho-tyrosine antibody (PY20; purchased from Transduction Laboratories) was added to a microplate for ELISA (Maxisorp; purchased from NUNC), followed by standing at 4° C. overnight to form a solid phase on the wells. After washing of the plate, 300 μl of a blocking solution was added, followed by standing at room temperature for 2 hr to perform blocking. After washing, the whole quantity of the cell extract was transferred to the wells, and the plate was then allowed to stand at 4° C. overnight. After washing, an anti-KDR antibody (purchased from Santa Cruz) was allowed to react at room temperature for one hr, and, after washing, a peroxidase-labeled anti-rabbit Ig antibody (purchased from Amersham) was allowed to react at room temperature for one hr. After washing, a chromophoric substrate for peroxidase (purchased from Sumitomo Bakelite Co., Ltd.) was added thereto to initiate a reaction. After a suitable level of color development, a reaction termination solution was added to stop the reaction, and the absorbance at 450 nm was measured with a microplate reader. The KDR phosphorylation activity for each well was determined by presuming the absorbance with the addition of VEGF and without the addition of the medicament to be 100% KDR phosphorylation activity and the absorbance without the medicament and VEGF to be 0% KDR phosphorylation activity. The concentration of the test compound was varied on several levels, the inhibition (%) of KDR phosphorylation was determined for each case, and the concentration of the test compound necessary for inhibiting 50% of KDR phosphorylation (IC50) was calculated.

Structure (SMILES) | inhibition in vivo at 20 mg/kg (Human glioma cells GL07) | IC50 (human KDR)
CCCNC(=O)Nc1ccc(Oc2ncnc3cc(OCc4ccncc4)c(OC)cc23)cc1Cl [Example 123, N-(2-Chloro-4-{[6-methoxy-7-(4-pyridylmethoxy)-4-quinazolinyl]oxy}phenyl)-N′-propylurea] | 31% | 8.9 nM
CCCNC(=O)Nc1ccc(Oc2ncnc3cc(OCCCCCN4CCOCC4)c(OC)cc23)cc1Cl [Example 124, N-[2-Chloro-4-({6-methoxy-7-[(5-morpholinopentyl)oxy]-4-quinazolinyl}oxy)phenyl]-N′-propylurea] | 27% | 1.9 nM
CCCNC(=O)Nc1ccc(Oc2ncnc3cc(OCCCCCn4ccnn4)c(OC)cc23)cc1Cl [Example 125, N-{2-chloro-4-[(6-methoxy-7-{[5-(1H-1,2,3-triazol-1-yl)pentyl]oxy}-4-quinazolinyl)oxy]phenyl}-N′-propylurea] | 30% | 2.6 nM
CCN(CC)C(=O)Nc1ccc(Oc2ncnc3cc(OCc4ccncc4)c(OC)cc23)cc1Cl [Example 126, N′-(2-Chloro-4-{[6-methoxy-7-(4-pyridylmethoxy)-4-quinazolinyl]oxy}phenyl)-N,N-diethyl-urea] | 52% | > 1000 nM
CCCNC(=O)Nc1ccc(Oc2ncnc3cc(OCCCCN4CCOCC4)c(OC)cc23)cc1Cl [Example 127, N-(2-Chloro-4-{[6-methoxy-7-(4-morpholinobutoxy)-4-quinazolinyl]oxy}phenyl)-N′-propylurea] | 25% | 1.1 nM
CCN(CC)C(=O)Nc1ccc(Oc2ncnc3cc(OCCn4ccnn4)c(OC)cc23)cc1Cl [Example 131, N′-[2-Chloro-4-({6-methoxy-7-[2-(1H-1,2,3-triazol-1-yl)ethoxy]-4-quinazolinyl}oxy)phenyl]-N,N-diethylurea] | 31% | > 1000 nM
CCCNC(=O)Nc1ccc(Oc2ncnc3cc(OCCCSc4ccncc4)c(OC)cc23)cc1Cl [Example 133, N-[2-Chloro-4-({6-methoxy-7-[3-(4-pyridylthio)propoxy]-4-quinazolinyl}oxy)phenyl]-N′-propylurea] | 20% | 8.3 nM
CCCNC(=O)Nc1ccc(Oc2ncnc3cc(OCCCSc4nnnn4C)c(OC)cc23)cc1Cl [Example 134, N-{2-Chloro-4-[(6-methoxy-7-{3-[(1-methyl-1H-1,2,3,4-tetrazol-5-yl)thio]propoxy}-4-quinazolinyl)-oxy]phenyl}-N′-propylurea] | 29% | 5 nM
CCCNC(=O)Nc1ccc(Oc2ncnc3cc(OCCCN4CCCCC4)c(OC)cc23)cc1Cl [Example 135, N-(2-chloro-4-{[6-methoxy-7-(3-piperidinopropoxy)-4-quinazolinyl]oxy}phenyl)-N′-propylurea] | 62% | 1 nM
CCCNC(=O)Nc1ccc(Oc2ncnc3cc(OC)c(OCCN4CCN(C)CC4)cc23)cc1Cl [Example 136, N-[2-Chloro-4-({7-methoxy-6-[2-(4-methylpiperazino)ethoxy]-4-quinazolinyl}oxy)phenyl]-N′-propylurea] | 23% | 160 nM
CCCNC(=O)Nc1ccc(Oc2ncnc3cc(OC)c(OCCCN4CCN(C)CC4)cc23)cc1Cl [Example 137, N-[2-Chloro-4-({7-methoxy-6-[3-(4-methylpiperazino)propoxy]-4-quinazolinyl}oxy)phenyl]-N′-propylurea] | 20% | 24 nM
CCCNC(=O)Nc1ccc(Oc2ncnc3cc(OC)c(OCc4ccccn4)cc23)cc1Cl [Example 138, N-(2-Chloro-4-{[7-methoxy-6-(2-pyridylmethoxy)-4-quinazolinyl]oxy}phenyl)-N′-propylurea] | 21% | 40 nM
CCCNC(=O)Nc1ccc(Oc2ncnc3cc(OC)c(OCCCN4CCOCC4)cc23)cc1Cl [Example 139, N-(2-Chloro-4-{[7-methoxy-6-(3-morpholinopropoxy)-4-quinazolinyl]oxy}phenyl)-N′-propylurea] | 27% | 15 nM
CCCNC(=O)Nc1ccc(Oc2ncnc3cc(OC)c(OCCCN(C)CCO)cc23)cc1Cl [Example 140] | 21% | 36 nM
CCCNC(=O)Nc1ccc(Oc2ccnc3cc(OCc4ccccn4)c(OC)cc23)cc1Cl [Example 141, N-(2-Chloro-4-{[6-methoxy-7-(2-pyridylmethoxy)-4-quinolyl]oxy}phenyl)-N′-propylurea] | 28% | 14 nM
CCCNC(=O)Nc1ccc(Oc2ccnc3cc(OCc4cccnc4)c(OC)cc23)cc1Cl [Example 142, N-(2-chloro-4-{[6-methoxy-7-(3-pyridylmethoxy)-4-quinolyl]oxy}phenyl)-N′-propylurea] | 48% | 2.6 nM
CCCNC(=O)Nc1ccc(Oc2ccnc3cc(OCc4ccncc4)c(OC)cc23)cc1Cl [Example 143, N-(2-chloro-4-{[6-methoxy-7-(4-pyridylmethoxy)-4-quinolyl]oxy}phenyl)-N′-propylurea] | 53% | 3.5 nM
CCCNC(=O)Nc1ccc(Oc2ccnc3cc(OCCN4CCOCC4)c(OC)cc23)cc1Cl [Example 144, N-(2-chloro-4-{[6-methoxy-7-(2-morpholinoethoxy)-4-quinolyl]oxy}phenyl)-N′-propylurea] | 56% | 1.6 nM
CCCNC(=O)Nc1ccc(Oc2ccnc3cc(OCCn4ccnn4)c(OC)cc23)cc1Cl [Example 145, N-[2-chloro-4-(6-methoxy-7-{[2-(1H-1,2,3-triazol-1-yl)ethoxy]-4-quinolyl}oxy)phenyl]-N′-propylurea] | 57% | 0.8 nM
CCCNC(=O)Nc1ccc(Oc2ccnc3cc(OCCn4ccnc4)c(OC)cc23)cc1Cl [Example 146, N-[2-chloro-4-(7-{[2-(1H-1-imidazolyl)ethoxy]-6-methoxy-4-quinolyl}oxy)phenyl]-N′-propylurea] | 48% | 1 nM
CCCNC(=O)Nc1ccc(Oc2ccnc3cc(OCCCO)c(OC)cc23)cc1Cl [Example 147, N-(2-Chloro-4-{[7-(3-hydroxypropoxy)-6-methoxy-4-guinolyl]oxy}phenyl)-N′-propylurea] | 34% | 1 nM
CCCNC(=O)Nc1ccc(Oc2ccnc3cc(OCCN4CCN(C)CC4)c(OC)cc23)cc1Cl [Example 148, N-[2-chloro-4-(6-methoxy-7-{[2-(4-methylpiperazino)ethoxy]-4-quinolyl}oxy)phenyl]-N′-propylurea] | 54% | 15 nM
CCCNC(=O)Nc1ccc(Oc2ccnc3cc(OCCO)c(OC)cc23)cc1Cl [Example 149, N-(2-chloro-4-{[7-(2-hydroxyethoxy)-6-methoxy-4-quinolyl]oxy}phenyl)-N′-propylurea] | 47% | 1.6 nM
CCCNC(=O)Nc1ccc(Oc2ccnc3cc(OCCN(C)CCO)c(OC)cc23)cc1Cl [Example 150, N-{2-Chloro-4-[(7-{2-[(2-hydroxyethyl)-(methyl)amino]ethoxy}-6-methoxy-4-guinolyl)oxy]phenyl}-N′-propylurea] | 22% | 1.8 nM
